Molecular target: T1, FER (Homo sapiens, UniProt P16591)
T1 construct: purchased Thermo Fisher Scientific (Life Technologies) SelectScreen
Assay: SelectScreen Z'LYTE
Type: biochemical
Procedure, shortened: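 Percent values come from Thermo SelectScreen profiling of NU5455, combining activity and binding assays. CSF1R was run in Z'LYTE format at Km app ATP, and CAMK1 in Adapta format with ATP listed at 10.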

T1 sequence (P16591 whole entry): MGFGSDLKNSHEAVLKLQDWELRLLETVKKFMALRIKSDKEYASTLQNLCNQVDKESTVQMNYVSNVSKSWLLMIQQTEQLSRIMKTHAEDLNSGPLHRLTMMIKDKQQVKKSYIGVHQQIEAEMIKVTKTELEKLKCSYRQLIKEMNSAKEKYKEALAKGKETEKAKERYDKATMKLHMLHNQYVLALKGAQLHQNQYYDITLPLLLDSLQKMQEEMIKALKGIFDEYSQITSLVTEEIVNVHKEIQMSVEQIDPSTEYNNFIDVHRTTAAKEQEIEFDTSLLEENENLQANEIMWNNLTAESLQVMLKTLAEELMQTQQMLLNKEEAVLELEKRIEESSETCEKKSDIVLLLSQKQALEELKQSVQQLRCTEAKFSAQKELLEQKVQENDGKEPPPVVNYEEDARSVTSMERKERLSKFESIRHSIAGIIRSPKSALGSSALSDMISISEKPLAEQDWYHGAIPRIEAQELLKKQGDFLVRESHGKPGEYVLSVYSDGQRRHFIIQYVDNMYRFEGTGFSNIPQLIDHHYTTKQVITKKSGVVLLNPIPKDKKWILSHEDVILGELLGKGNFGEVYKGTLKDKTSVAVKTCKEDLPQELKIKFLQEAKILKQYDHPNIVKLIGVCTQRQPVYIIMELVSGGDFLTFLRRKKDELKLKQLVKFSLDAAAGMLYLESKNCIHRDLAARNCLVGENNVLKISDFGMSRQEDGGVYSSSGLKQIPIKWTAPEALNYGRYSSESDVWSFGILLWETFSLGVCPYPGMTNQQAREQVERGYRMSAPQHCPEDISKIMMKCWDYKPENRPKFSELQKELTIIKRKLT

SMILES: CN(C(=O)CN1CCOCC1)c1ccc2sc3c(-c4cccc5c(=O)cc(N6CC7CCC(C6)O7)oc45)cccc3c2c1 [NU5455]
- inhibition at 1 µM: 7.1%
